Experimental data published in the NIST ThermoML archive (doi:10.1021/je7003758).

Assay: xn = mol fraction of the nth substance listed
Details: 298.15 K, Liquid

CCCCCCCl [1-chlorohexane] + CN1CCCC1=O
mass density [kg/m3]
Details	x2 = 0.1003	x2 = 0.1988	x2 = 0.305	x2 = 0.4005	x2 = 0.5007	x2 = 0.5974	x2 = 0.7016	x2 = 0.8002	x2 = 0.8995
100 kPa	884.9	897	911	924.2	938.9	954.1	971.5	988.7	1007.4
500 kPa	885.2	897.3	911.2	924.5	939.2	954.4	971.7	988.9	1007.6
1000 kPa	885.5	897.6	911.6	924.9	939.5	954.6	972.1	989.2	1007.9
1500 kPa	886	898.1	912	925.3	939.9	955	972.4	989.5	1008.2
1900 kPa	–	–	912.3	–	–	–	–	–	–
2000 kPa	886.4	898.4	–	925.6	940.2	955.3	972.7	989.8	1008.4
2500 kPa	886.8	898.9	912.8	926	940.6	955.7	973	990.1	1008.7
3000 kPa	887.2	899.2	913.2	926.4	941	956	973.4	990.4	1009
3500 kPa	887.7	899.6	913.6	926.8	941.3	956.2	973.7	990.6	1009.3
4000 kPa	888	900	–	927.1	941.6	956.6	974	991	1009.6
4100 kPa	–	–	914	–	–	–	–	–	–
4500 kPa	888.4	900.4	914.3	–	942	956.9	974.3	991.2	1009.8
4600 kPa	–	–	–	927.5	–	–	–	–	–
4900 kPa	888.7	–	–	–	–	–	–	–	–
5000 kPa	–	900.8	914.6	927.8	942.3	957.3	974.6	991.5	1010.1
5500 kPa	889.2	901.2	915	928.2	942.7	957.6	974.8	991.8	1010.4
5900 kPa	889.6	–	–	–	–	–	–	–	–
6000 kPa	–	901.6	915.4	928.6	943	958	975.2	992.2	1010.7
6500 kPa	890.1	902	915.8	928.9	943.3	958.3	975.5	992.4	1011
7000 kPa	890.4	902.4	916.2	929.2	943.7	958.6	975.8	992.7	1011.2
7400 kPa	–	902.7	–	–	–	–	–	–	–
7500 kPa	890.8	–	916.6	929.6	944	958.9	976.1	993.1	1011.5
8000 kPa	891.2	903.1	917	929.9	944.3	959.2	976.4	993.3	1011.8
8400 kPa	891.6	–	917.2	–	–	–	–	–	–
8500 kPa	–	–	–	930.3	944.7	959.5	976.7	993.6	1012
8600 kPa	–	903.6	–	–	–	–	–	–	–
8900 kPa	892	–	–	–	945	959.8	–	–	–
9000 kPa	–	903.8	917.7	930.7	–	–	977	993.9	1012.3
9400 kPa	–	–	–	930.9	–	–	–	–	–
9500 kPa	892.4	904.2	918.1	–	945.3	960.1	977.3	994.2	1012.6
9900 kPa	–	–	–	–	–	–	977.7	–	–
10000 kPa	892.9	904.7	918.6	931.4	945.7	960.5	–	994.5	1012.9
10500 kPa	893.2	905.1	918.8	931.7	946	960.8	978	994.8	1013.2
11000 kPa	893.5	905.4	919.2	932.1	946.4	961.1	978.3	995.1	1013.5
11400 kPa	893.9	–	–	–	–	961.4	–	–	–
11500 kPa	–	905.8	919.6	932.4	946.8	–	978.6	995.4	1013.8
11900 kPa	–	–	–	–	947	–	978.9	–	–
12000 kPa	894.3	906.2	919.9	932.8	–	961.8	–	995.7	1014
12400 kPa	–	906.5	–	–	–	–	–	995.9	1014.2
12500 kPa	894.7	–	920.2	933.1	947.3	962.2	–	–	–
12600 kPa	–	–	–	–	–	–	979.2	–	–
12900 kPa	–	–	–	–	–	–	979.4	–	–
13000 kPa	895.1	907.1	920.6	933.4	947.7	962.4	–	996.3	1014.5
13400 kPa	–	907.3	–	–	948	–	979.7	996.5	–
13500 kPa	895.5	–	921	933.8	–	962.6	–	–	1014.8
13900 kPa	–	–	–	–	948.3	–	–	–	–
14000 kPa	895.9	907.7	921.3	934.1	–	963.1	980.1	996.8	1015.1
14400 kPa	–	–	921.6	934.4	–	–	–	–	–
14500 kPa	896.3	908	–	–	948.6	963.4	980.3	997.1	1015.4
15000 kPa	896.6	908.4	922	934.8	949	963.7	980.7	997.4	1015.6
15400 kPa	896.9	–	–	–	–	–	–	–	–
15500 kPa	–	908.7	922.3	935.1	949.3	964	981	997.6	1015.8
15900 kPa	–	–	–	–	–	964.2	–	–	–
16000 kPa	897.4	909	922.7	935.4	949.6	–	981.3	–	1016.1
16100 kPa	–	–	–	–	–	–	–	998	–
16500 kPa	897.7	909.4	923	935.7	949.9	964.6	981.5	998.2	1016.4
16900 kPa	–	909.7	–	–	–	964.8	–	–	1016.6
17000 kPa	898	–	923.4	936	950.2	–	981.8	998.4	–
17400 kPa	–	–	–	–	950.5	–	982	–	–
17500 kPa	898.4	910.1	923.6	–	–	965.1	–	998.8	1016.9
17600 kPa	–	–	–	936.5	–	–	–	–	–
18000 kPa	898.8	910.5	924	936.7	950.8	965.4	982.3	999	1017.1
18400 kPa	–	–	–	937	951.1	–	–	–	–
18500 kPa	899.1	910.9	924.3	–	–	965.7	982.7	999.2	–
18700 kPa	–	–	–	–	–	–	–	–	1017.5
19000 kPa	899.5	911.3	924.7	937.4	951.5	966	983	999.6	1017.8
19500 kPa	899.8	911.6	925	937.8	951.8	966.3	983.3	999.8	1017.9
20000 kPa	900.3	912	925.4	938.2	952.2	966.7	983.8	1000.2	1018.3
